Data: article PMC7867085, “In Vitro and In Vivo Antitumor Activity of Indolo[2,3-b] Quinolines, Natural Product Analogs from Neocryptolepine Alkaloid” (Molecules, 2021)

Assays:
[1] = tested on: normal mice (liver homogenate); test: Lipid peroxidation and antioxidant enzymes in liver homogenate of normal mice; type: in vivo, Swiss female albino mice; details: 100 mg/kg SC for 5 days
Description: Measuring antioxidant enzyme levels and lipid peroxidation was utilized to evaluate the pharmacological effect of indoloquinoline derivatives. The study group was divided into two subgroups, normal mice and tumor-bearing mice. Each subgroup is further subdivided into two groups, one group received indoloquinoline derivatives, and the other group was marked as a placebo group.
The eradicated liver was double washed first, with ice-cold normal saline then, with cold 0.15 mol/L Tris-HCl buffer (pH 7.4). The clean organ was dried and weighed, and used to prepare a 10% w/v homogenate in 0.15 mol/L Tris-HCl buffer. A portion of the prepared homogenate was centrifuged at 1500 rpm for 15 min at 4 °C [47] and used for estimating lipid peroxidation, SOD [48] and CAT [49] analysis was carried out using the supernatant.

[2] = tested on: splenic lymphocytes of normal mice; test: Splenic lymphocyte count in normal mice; type: in vivo, Swiss female albino mice; details: 100 mg/kg SC for 5 days
Description: The difference in the number of splenic lymphocytes between the study groups, including groups given indoloquinoline derivatives, control group, and groups with a tumor, were evaluated. Normal mice administered indoloquinoline derivatives at a dose of 100 mg/kg for 5 constitutive days subcutaneously reported statistical similarities with the untreated normal mice group regarding the count of splenic lymphocytes (Table 6).
(§1) Under sterile conditions, the spleens were eliminated, and the single cell suspension was made in RPMI 1640 medium. Splenic lymphocytes were purified as described earlier. Viable splenic lymphocytes were counted in a hemocytometer by trypan blue exclusion test and used for further analysis.
(§2) During the study, female Swiss albino mice (normal, treated, and untreated) were anesthetized. Under sterile conditions, after scattering 70% alcohol on the abdominal region, the spleen was removed and then injected with a minor amount of PBS. Spleen was pressed across the fine mesh of the tissue grinder. After centrifuging the produced cell suspension at 1000 rpm for 5 min, the supernatant was discarded, and the cells were washed at room temperature by centrifugation in PBS twice. Trypan blue extrusion method was used to evaluate cell viability, and a phase-contrast microscope was used for cell counting. The experiment was done in tripartite.

[3] = tested on: splenic lymphocytes of EAC bearing mice; test: Splenic lymphocyte count in EAC bearing mice; type: in vivo, Swiss female albino mice; details: 100 mg/kg SC for 5 days
Description: This reduction is reconfirming the reported fact that tumor causes massive depletion in immune cell numbers. Table 7 shown the reduced splenic lymphocyte results were a reaffirmation that cancer disabled normal lymphocyte development. The effective dose of indoloquinoline analogs, given throughout this study; 100 mg/kg for 5 constitutive days subcutaneously, reported an increase in the spleen cell number providing evidence that they protect the lymphoid organ of mice with tumor as illustrated in (Table 7).
as §1, §2

Swiss albino mice = test: Acute / short-term toxicity study, single subcutaneous dose; type: in vivo; details: for No. of Death: 7 mice; for No. of Death / % Mortality: observed 24 h
Description: To confirm the safety of indoloquinoline compounds, acute and short-term toxicity studies were done. Forty-two Swiss albino mice were divided into six groups of seven mice each. The first five groups were subcutaneously injected in single graded doses. The first five groups were given a single dose of graded doses (400, 800, 1200, 1600, and 2000 mg/kg body weight) of indoloquinoline analog containing 11-substituted N-methyl piperazinyl side-chain 6d by the subcutaneous route, while the last group received 0.2 mL of (water: DMSO, 7:3) by the same route. The animals were then observed for 24 h for toxicity signs and death. The LD50 of 6d was calculated using the arithmetic methods of Karber as modified by Aliu and Nwude. The mortality rates and calculated LD50 are presented in (Table 3).

5(5-Methyl-5H-indolo[2,3-b] quinolin-11-ylamino) Pyrimidine-2,4(1H,3H)-dione [Compound 6c]
CAT [1]: 6.2 ± 0.30 KU/mg Tissue/s
Lipid Peroxidation [1]: 251.68 ± 11.9 nmol MDA/g Tissue
SOD [1]: 138.6 ± 6.0 U/g Tissue
Splenic Lymphocyte Number [2]: 13.29 ± 1.12 10^6/mL
Splenic Lymphocyte Number [3]: 17.0 ± 0.58 * 10^6/mL
increase in lymphocytic count [3]: 359.5%

5-Methyl-N-(4-methylpiperazin-1-yl)-5H-indolo[2,3-b] Quinolin-11-amine [Compound 6d]
No. of Death (Swiss albino mice; 400 mg/kg SC single dose): 0
% Mortality (Swiss albino mice; 400 mg/kg SC single dose): 0%
No. of Death (Swiss albino mice; 800 mg/kg SC single dose): 2
% Mortality (Swiss albino mice; 800 mg/kg SC single dose): 28.5%
No. of Death (Swiss albino mice; 1200 mg/kg SC single dose): 4
% Mortality (Swiss albino mice; 1200 mg/kg SC single dose): 57.1%
No. of Death (Swiss albino mice; 1600 mg/kg SC single dose): 6
% Mortality (Swiss albino mice; 1600 mg/kg SC single dose): 85.7%
No. of Death (Swiss albino mice; 2000 mg/kg SC single dose): 7
% Mortality (Swiss albino mice; 2000 mg/kg SC single dose): 100%
LD50 (Swiss albino mice; subcutaneous, mice, arithmetic method of Karber): 1000 mg/kg
CAT [1]: 6.1 ± 0.20 KU/mg Tissue/s
Lipid Peroxidation [1]: 248.69 ± 5.5 nmol MDA/g Tissue
SOD [1]: 137.9 ± 3.9 U/g Tissue
Splenic Lymphocyte Number [2]: 12.8 ± 0.04 10^6/mL
Splenic Lymphocyte Number [3]: 17.0 ± 0.61 * 10^6/mL
increase in lymphocytic count [3]: 359.5%

Cn1c2nc3ccccc3c-2c(Nc2ccc(Br)cc2F)c2ccccc21 [Compound 6a, N-(4-Bromo-2-fluorophenyl)-5-methyl-5H-indolo[2,3-b] Quinolin-11-amine]
CAT [1]: 6.5 ± 0.39 KU/mg Tissue/s
Lipid Peroxidation [1]: 252.1 ± 7.2 nmol MDA/g Tissue
SOD [1]: 139.4 ± 2.9 U/g Tissue
Splenic Lymphocyte Number [2]: 13.3 ± 1.08 10^6/mL
Splenic Lymphocyte Number [3]: 20.0 ± 0.73 * 10^6/mL
increase in lymphocytic count [3]: 440.5%

Cn1c2nc3ccccc3c-2c(NCCc2c[nH]c3ccccc23)c2ccccc21 [Compound 6b, N-(2-(1H-Indol-3-yl)ethyl)-5-methyl-5H-indolo[2,3-b] Quinolin-11-amine]
CAT [1]: 5.7 ± 0.31 KU/mg Tissue/s
Lipid Peroxidation [1]: 247.96 ± 6.3 nmol MDA/g Tissue
SOD [1]: 140.2 ± 1.9 U/g Tissue
Splenic Lymphocyte Number [2]: 12.97 ± 0.65 10^6/mL
Splenic Lymphocyte Number [3]: 14.8 ± 1.22 * 10^6/mL
increase in lymphocytic count [3]: 300%
